Measurements published in ChEMBL document CHEMBL1133070, “Novel 2,3,4,5-tetrahydro-1H-3-benzazepines with high affinity and selectivity for the dopamine D3 receptor” (Bioorg Med Chem Lett, 2000).

Key:
D(2) dopamine receptor = D(2) dopamine receptor (Homo sapiens, UniProt P14416); assay: biochemical; assay type: cell-based, CHO
Description: Binding affinity towards human Dopamine receptor D2 by displacement of [125I]iodosulpiride expressed in CHO cells

D(3) dopamine receptor = D(3) dopamine receptor (Homo sapiens, UniProt P35462); assay: biochemical; assay type: cell-based, CHO
D(3) dopamine receptor, sequence (P35462 whole entry): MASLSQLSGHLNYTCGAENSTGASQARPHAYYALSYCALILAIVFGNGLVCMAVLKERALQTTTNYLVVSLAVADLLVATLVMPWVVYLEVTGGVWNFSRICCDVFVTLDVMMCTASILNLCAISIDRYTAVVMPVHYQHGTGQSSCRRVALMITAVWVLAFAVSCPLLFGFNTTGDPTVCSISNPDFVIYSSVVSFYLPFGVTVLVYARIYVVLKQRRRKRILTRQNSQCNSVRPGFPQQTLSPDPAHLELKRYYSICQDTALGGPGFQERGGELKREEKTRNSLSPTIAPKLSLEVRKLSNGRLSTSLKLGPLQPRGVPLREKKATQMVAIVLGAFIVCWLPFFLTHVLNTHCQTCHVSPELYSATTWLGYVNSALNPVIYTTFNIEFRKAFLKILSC
Description: Binding affinity towards human Dopamine receptor D3 by displacement of [125I]iodosulpiride expressed in CHO cells

D(2) dopamine receptor, sequence (P14416 whole entry): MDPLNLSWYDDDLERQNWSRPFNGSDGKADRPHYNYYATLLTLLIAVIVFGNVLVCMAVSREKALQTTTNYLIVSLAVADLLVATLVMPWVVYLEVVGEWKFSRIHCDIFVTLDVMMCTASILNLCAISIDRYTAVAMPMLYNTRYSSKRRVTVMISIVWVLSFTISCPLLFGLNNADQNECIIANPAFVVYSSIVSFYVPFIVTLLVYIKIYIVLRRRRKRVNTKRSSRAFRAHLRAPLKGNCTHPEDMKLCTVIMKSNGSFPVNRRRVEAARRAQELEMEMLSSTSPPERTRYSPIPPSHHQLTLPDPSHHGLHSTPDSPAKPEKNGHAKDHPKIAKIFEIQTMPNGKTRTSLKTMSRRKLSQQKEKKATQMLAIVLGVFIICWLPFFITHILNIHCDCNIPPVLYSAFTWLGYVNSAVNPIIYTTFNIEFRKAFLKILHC

| Compound | Ki (D(2) dopamine receptor) [nM] | Ki (D(3) dopamine receptor) [nM] |
| --- | --- | --- |
| N#Cc1ccc2c(c1)CCN(CC[C@H]1CC[C@H](NC(=O)c3ccc4c(c3)NC(=O)CO4)CC1)CC2 | 794 | 6.31 |
| CC(=O)Nc1cccc(/C=C/C(=O)N[C@H]2CC[C@H](CCN3CCc4ccc(C#N)cc4CC3)CC2)c1 | 501 | 3.16 |
| N#Cc1ccc2c(c1)CCN(CC[C@H]1CC[C@H](NC(=O)c3cccc4ccccc34)CC1)CC2 | 1260 | 20 |
| N#Cc1ccc2c(c1)CCN(CC[C@H]1CC[C@H](NC(=O)/C=C/c3ccccc3F)CC1)CC2 | 631 | 10 |
| CC(=O)c1cccc(/C=C/C(=O)N[C@H]2CC[C@H](CCN3CCc4ccc(C#N)cc4CC3)CC2)c1 | 200 | 3.98 |
| N#Cc1ccc2c(c1)CCN(CC[C@H]1CC[C@H](NC(=O)/C=C/c3cccc(F)c3)CC1)CC2 | 398 | 6.31 |
| N#Cc1ccc2c(c1)CCN(CC[C@H]1CC[C@H](NC(=O)c3ccc4ccccc4c3)CC1)CC2 | 3160 | 20 |
| N#Cc1ccc2c(c1)CCN(CC[C@H]1CC[C@H](NC(=O)c3cc4ccccc4[nH]3)CC1)CC2 | 316 | 15.8 |
| N#Cc1ccc2c(c1)CCN(CC[C@H]1CC[C@H](NC(=O)c3ccnc4ccccc34)CC1)CC2 | 1260 | 25.1 |
| N#Cc1ccc2c(c1)CCN(CC[C@H]1CC[C@H](NC(=O)c3ccc4ccc(O)nc4c3)CC1)CC2 | 501 | 10 |
| COc1cccc(/C=C/C(=O)N[C@H]2CC[C@H](CCN3CCc4ccc(C#N)cc4CC3)CC2)c1 | 631 | 3.16 |
| N#Cc1ccc2c(c1)CCN(CC[C@H]1CC[C@H](NC(=O)c3cccc4ncccc34)CC1)CC2 | 2000 | 12.6 |
| CC(=O)Nc1cccc(/C=C/C(=O)N[C@H]2CC[C@H](CCN3CCc4ccc(C#N)cc4CC3)CC2)c1F | 501 | 3.98 |
| N#Cc1ccc2c(c1)CCN(CC[C@H]1CC[C@H](NC(=O)/C=C/c3ccc(F)cc3)CC1)CC2 | 398 | 6.31 |
